Laboratory results as given in patent US9770469B2, “Methods of reprogramming renal cells” (Tel HaShomer Medical Research Infrastructure and Services …, priority 2009, dated 2017).

Assays:
human adult kidney cells [1] = experiment: Western blot for Six2 and Wt1 after VPA; format: cell-based; conditions: 24 h after VPA exposure
Procedure: (§1) Cell Treatment: Cells were treated for 24 hours with growth medium supplemented with 1, 2, or 4 mM VPA (Sigma) or with H2O for control sample. Otherwise, cells were treated for 24 hours with growth medium supplemented with the combination of 75 μM TSA (Sigma) and 250 μM 5-AZA (Sigma) or with 100% Ethanol and Acetic Acid (Acetic Acid: H2O 1:1) for control sample. […] 24 hours prior to harvesting VPA at a concentration of 4 mM was added to the cell culture.
(§2) Western Blot: AK, FK (treated and untreated) and Melanoma cells were harvested with Tripsin/EDTA. Cell extracts were prepared with lysis buffer (50 mM Tris-HCl, 150 mM NaCl, 0.1 mM EDTA, 0.5 mM DTT, 1.5 mM MgCl, 0.5% Triton-X) and their concentrations were detected by BCA protein assay kit (Thermo scientific). 100 μg of total proteins were heated at 95° C. for 5 min with laemmli sample buffer (Bio-rad) and then were loaded on SDS-10% polyacrylamide gel. After electrophoresis, proteins were transferred to nitrocellulose membrane that was blocked with 5% nonfat dry milk overnight at 4° C. The membrane was reacted with the required antibodies, namely Six2 (Affinity Bioreagents), WT1 (Santa Cruz), goat anti-rabbit IgG (Jackson). The membrane was reacted with ECL substrate (Thermo scientific) and was exposed to medical x-ray film (Fuji).

human fetal kidney cells [2] = experiment: Western blot for Six2 and Wt1 after VPA; format: cell-based; conditions: 24 h after VPA exposure
Procedure: as §1, §2

human adult kidney cells [3] = experiment: qRT-PCR gene expression after TSA/AzaC or VPA treatment; format: cell-based
From the text: (§3) Tissue Samples: human tissues samples were collected according to the Helsinki requirements. Human fetal kidney cells (HFK) were collected from elective abortions at fetal gestational age ranged from 15 to 19 weeks. Normal human adult kidney cell (HAK) samples were retrieved from borders of RCC tumors from partial nephrectomy patients. Establishment of Primary Cultures from Human Kidney Tissues: Collected tissues were minced in HBSS, soaked in IMDM Medium (Invitrogen) supplemented with 0.1% collagenase II (Invitrogen). The digested tissue was then gradually forced through a 100 μm, 70 μm and 50 μm cell strainer to achieve a single cell suspension, and cultured in growth medium supplemented with FBS 10%, L-Glutamin 1%, Pen-Strep 1% and growth factors: 50 ng/ml of bFGF, 50 ng/ml of EGF and 5 ng/ml of SCF (R&D systems). Cell Treatment: […] Otherwise, cells were treated for 24 hours with growth medium supplemented with the combination of 75 μM TSA (Sigma) and 250 μM 5-AZA (Sigma) or with 100% Ethanol and Acetic Acid (Acetic Acid: H2O 1:1) for control sample. […] 24 hours prior to harvesting VPA at a concentration of 4 mM was added to the cell culture. Quantitative Reverse Transcription-PCR: Total RNA from kidney tissue cultured cells was isolated using the TRIZOL reagent (Invitrogen) according to the manufacturer's protocols. cDNA synthesis was carried out using Verso kit (Thermo scientific) with Random primers. Quantitative RT PCR was performed using an ABI7900HT sequence detection system (Perkin-Elmer/Applied Biosystems) in the presence of SYBR green (SYBR green PCR kit; Qiagen). Each analysis reaction was performed in duplicates or triplicates. GapDH was used as an endogenous control throughout all experimental analyses. Analysis was performed using the −ΔΔCt method, which determines fold changes in gene expression relative to a comparator sample.

human fetal kidney cells [4] = experiment: as above; format: cell-based
From the text: as §3

Oct4 OE HAK cells = experiment: qRT-PCR of Oct4 over-expressing HAK cells with or without VPA; format: cell-based, human
human adult kidney cells [5] = experiment: qRT-PCR gene expression after TSA/AzaC or VPA treatment; format: cell-based; conditions: HAK cells, 24 h VPA, particularly in VPA-2 mM
[6] = HAK cells, 24 h, TSA/AzaC or VPA 1-4 mM, vs untreated control
[7] = HAK cells, 24 h, TSA/AzaC or all VPA concentrations (1, 2, 4 mM)
[8] = HFK cells, 24 h, TSA/AzaC or VPA
[9] = HFK cells, 24 h, TSA/AzaC or VPA (lesser extent than Six2)

SMILES: CCCC(CCC)C(=O)O [VPA, valproic acid]
- Six2 protein levels (human adult kidney cells [1]; 4 mM): increment
- Wt1 protein levels (human adult kidney cells [1]; 2 and 4 mM): no changes
- Six2 protein levels (human fetal kidney cells [2]; 4 mM): increment
- Wt1 protein levels (human fetal kidney cells [2]; 2 and 4 mM): no changes
- Six2 mRNA reinduction (human adult kidney cells [3]; HAK cells, 24 h, TSA 75 μM + 5-AZA 250 μM, or VPA 1, 2, 4 mM (dose-dependent), vs untreated control): five-fold
- Vimentin mRNA expression change (human adult kidney cells [3]; HAK cells, 24 h, TSA/AzaC or VPA): mostly unchanged
- Osr1 mRNA expression change (re-activation) (human adult kidney cells [3]; [6]): upregulated in a dose-dependent manner
- Pax2 mRNA expression change (re-activation) (human adult kidney cells [3]; [6]): mildly elevated
- Sall1 mRNA expression change (re-activation) (human adult kidney cells [3]; [6]): upregulated in a dose-dependent manner
- Wt1 mRNA expression change (re-activation) (human adult kidney cells [3]; [6]): reduced
- Klf4 mRNA expression change (human adult kidney cells [3]; [7]): significantly up-regulated
- Nanog mRNA expression change (human adult kidney cells [3]; [7]): significantly up-regulated
- E-cadherin mRNA expression change (human adult kidney cells [3]; HAK cells, 24 h, TSA/AzaC, or VPA (effect at 2 mM, 4 mM)): mildly elevated
- Oct4 mRNA expression change (human adult kidney cells [3]; HAK cells, 24 h treatment): remained unchanged
- Wnt4 mRNA levels (human adult kidney cells [3]; VPA-treated adult kidney cells): strong up-regulation
- β-catenin mRNA levels (human adult kidney cells [3]; VPA-treated adult kidney cells): elevation
- Klf4 mRNA increase (human fetal kidney cells [4]; HFK cells, 24 h, 4 mM VPA): two-five
- Nanog mRNA increase (human fetal kidney cells [4]; HFK cells, 24 h, 4 mM VPA): two-five
- Oct4 mRNA increase (human fetal kidney cells [4]; HFK cells, 24 h, 4 mM VPA): two-five
- E-cadherin mRNA expression change (human fetal kidney cells [4]; [8]): significantly elevated
- Pax2 mRNA expression change (human fetal kidney cells [4]; [8]): mild elevation
- Wt1 mRNA expression change (human fetal kidney cells [4]; [8]): reduction
- Osr1 mRNA expression change (human fetal kidney cells [4]; [9]): dose-dependent activation
- Sall1 mRNA expression change (human fetal kidney cells [4]; [9]): dose-dependent activation
- Six2 mRNA induction (human fetal kidney cells [4]; HFK cells, 24 h VPA, dose-dependent): four-fold
- Wnt4 mRNA levels (human fetal kidney cells [4]; VPA-treated fetal kidney cells): strong up-regulation
- β-catenin mRNA levels (human fetal kidney cells [4]; VPA-treated fetal kidney cells): elevation
- Six2 expression, VPA exposure combined with Oct4 OE (Oct4 OE HAK cells): higher Six2 expression pattern compared to each of the single manipulations
- Oct4 mRNA expression change (human adult kidney cells [5]): significantly up-regulated
